Experimental data reported in ChEMBL document CHEMBL1130476, “Molecular modeling of the interaction of trypanocide guanyl hydrazones with B-DNA” (1997).

Each molecule was assayed on Trypanosoma cruzi (assay: Inhibitory dose for selectivity against Trypanosoma cruzi). Settings: read-out: ID50 (the source's name).
Assay type: functional
With `COc1cc(/C=N/NC(=N)N)ccc1O` the IC50 was 4800 µM.
`COc1cccc(/C=N/NC(=N)N)c1OC` was tested, and the IC50 was 22.5 µM.
Molecule `N=C(N)N/N=C/c1ccc(Cl)cc1` has an IC50 of 27.4 µM.
`N=C(N)N/N=C/c1ccc2c(c1)OCO2` gave an IC50 of 274 µM.
With `N=C(N)N/N=C/c1cc2c(cc1Br)OCO2` the IC50 was 23.7 µM.
`N=C(N)N/N=C/c1cccc([N+](=O)[O-])c1O` gave an IC50 of 877 µM.
Molecule `N=C(N)N/N=C/c1ccccc1` has an IC50 of 205 µM.
